What was measured:
Experiment in all cases: Paper diffusion drug sensitivity test (zone of inhibition)
Assay type in all cases: cell-based
[1] = test system: Staphylococcus aureus (SAU); conditions: LB agar, 37° C., 24 h, control drugs 30 μg/tablet, extract 128 μg/tablet, ≥17 mm sensitive, 15-16 mm intermediate, ≤14 mm resistant
Method: (§1) The bacteriostatic activity test experiment was carried out on the Syringa pubescens microphylla extract of the present invention, and the bacteriostatic effect was determined by a paper diffusion drug sensitivity method.
(§2) Experimental strains: Staphylococcus aureus (SAU), multi-drug resistant Staphylococcus aureus 18-206, multi-drug resistant Pseudomonas aeruginosa 18-261. The experimental strains were provided by Huashan Hospital, Fudan University (Institute of Antibiotics, Fudan University).
(§3) Drug sensitive paper: The drug sensitive paper is a special drug sensitive paper with a diameter of 6.35 mm and a water absorption of 0.02 mL. The control drugs were cefazolin sodium (30 μg/tablet), vancomycin (30 μg/tablet) and gentamicin (30 μg/tablet); the test drug was the Syringa pubescens microphylla extract (128 μg/tablet).
(§4) The experimental strains were inoculated in a non-selective medium and incubated in air at 37 C for 24 hours. A single colony was selected and inoculated into a broth medium, and incubated at 35±2° C. for 6 hours. LA broth medium was used to correct the concentration of the bacterial solution to 1.5×10^8 CFU/mL to obtain a bacterial suspension.
(§5) Weighing LB dry powder, autoclaving at 103.4 Kpa, 121.3° C. for 15 min, then placing in a 40° C.-50° C. water bath. Sterile empty plates (with an inner diameter of 9 cm) were placed on a water platform of the ultra-clean table. LB solution was poured to the plates, with agar thickness of 3 mm-4 mm. After the plates were cooled at room temperature, they were stored in a refrigerator at 2° C. to 8° C. Bacteria liquid was spread evenly with a sterile cotton swab on the surface of the LB plate 3 times. The LB plate was dried at room temperature for 3 min to 5 min. An antibacterial drug paper sheet was placed in the plate using sterile tweezers. The plates were placed in a 37° C. incubator for 24 h. The diameter of inhibition zone was measured. 0.5% DMSO solution was used as the negative control. The diameter of inhibition zone was to measure the antibacterial activity. Inhibition zone≥17 mm, sensitive; inhibition zone=15 mm-16 mm, intermediate; inhibition zone≤14 mm, resistant.

[2] = test system: multi-drug resistant Pseudomonas aeruginosa 18-261; conditions: strain 18-261; LB agar, 37° C., 24 h; control drugs 30 μg/tablet, extract 128 μg/tablet; ≥17 mm sensitive, 15-16 mm intermediate, ≤14 mm resistant
Method: as §1, §2, §3, §4, §5

[3] = test system: multi-drug resistant Staphylococcus aureus 18-171; conditions: strain 18-171; LB agar, 37° C., 24 h; control drugs 30 μg/tablet, extract 128 μg/tablet; ≥17 mm sensitive, 15-16 mm intermediate, ≤14 mm resistant

Row | Compound | Diameter of Inhibition Zone [1] [mm] | Diameter of Inhibition Zone [2] [mm] | Diameter of Inhibition Zone [3] [mm]
1 | Cc1nnc(SCC2=C(C(=O)O)N3C(=O)[C@@H](NC(=O)Cn4cnnn4)[C@H]3SC2)s1 [cefazolin sodium] | 10 | 0 | 0
2 | CN[C@H](CC(C)C)C(=O)N[C@H]1C(=O)N[C@@H](CC(N)=O)C(=O)N[C@H]2C(=O)N[C@H]3C(=O)N[C@H](C(=O)N[C@H](C(=O)O)c4cc(O)cc(O)c4-c4cc3ccc4O)[C@H](O)c3ccc(c(Cl)c3)Oc3cc2cc(c3O[C@@H]2O[C@H](CO)[C@@H](O)[C@H](O)[C@H]2O[C@H]2C[C@](C)(N)[C@H](O)[C@H](C)O2)Oc2ccc(cc2Cl)[C@H]1O [vancomycin] | 23 |  | 17
3 | gentamicin | 18 | 17 | 16

Reference: patent publication US11712457B2, “Syringa pubescens microphylla seed extract composition and its application in antibiotic-resistant infections” (SHAANXI UNIVERSITY OF SCIENCE AND TECHNOLOGY, priority 2020, dated 2023)
